Molecular target: c-Myc template DNA (c-myc quadruplex)
Test: Quadruplex binding / stop assay (Taq polymerase arrest, capillary electrophoresis)
Details: read-out: S DATA; Table 1D, stop assay data

| Structure (SMILES) | IC50 |
| --- | --- |
| CN1CCCC1CCNC(=O)c1cn2c3c(c(NCc4ccccc4N4CCCCC4)c(F)cc3c1=O)Oc1cc3ccccc3cc1-2 (stereo not drawn) [compound 1509] | > 15000 nM |
| CN1CCCC1CCNC(=O)c1cn2c3c(c(N(C)C4CCCCNC4)c(F)cc3c1=O)Oc1cc3ccccc3cc1-2 (stereo not drawn) [compound 1510] | > 15000 nM |
| CN1CCCC1CCNC(=O)c1cn2c3c(c(NCc4ccccc4N4CCOCC4)c(F)cc3c1=O)Oc1cc3ccccc3cc1-2 (stereo not drawn) [compound 1511] | 1750 nM |
| CN1CCCC1CCNC(=O)c1cn2c3c(c(N4CCNC(c5cccnc5)C4)c(F)cc3c1=O)Oc1cc3ccccc3cc1-2 (stereo not drawn) [compound 1513] | 1750 nM |
| CN1CCCC1CCNC(=O)c1cn2c3c(c(N4C[C@@H](NC(=O)OC(C)(C)C)[C@H](c5ccccc5)C4)c(F)cc3c1=O)Oc1cc3ccccc3cc1-2 (stereo partly drawn) [compound 1514] | > 15000 nM |
| COC(=O)N[C@H]1CCN(c2c(F)cc3c(=O)c(C(=O)NCCC4CCCN4C)cn4c3c2Oc2cc3ccccc3cc2-4)C1 (stereo partly drawn) [compound 1515] | > 15000 nM |
| O=C(NCCC1CCCN1)c1cn2c3c(c(NCCN4CCCC4)ccc3c1=O)Oc1cc3ccccc3cc1-2 (stereo not drawn) [compound 1516] | 1750 nM |
| CN1CCCC1CCNC(=O)c1cn2c3c(c(NCCN4CCCC4)ccc3c1=O)Oc1cc3ccccc3cc1-2 (stereo not drawn) [compound 1517] | 750 nM |
| O=C(NCCCN1CCOCC1)c1cn2c3c(c(NCCN4CCCC4)ccc3c1=O)Oc1cc3ccccc3cc1-2 [compound 1518] | 1750 nM |
| CC1(C)CC(NC(=O)c2cn3c4c(c(NCCN5CCCC5)ccc4c2=O)Oc2cc4ccccc4cc2-3)CC(C)(C)N1 [compound 1519] | 750 nM |
| O=C(NCCN1CCOCC1)c1cn2c3c(c(NCCN4CCCC4)ccc3c1=O)Oc1cc3ccccc3cc1-2 [compound 1521] | 1750 nM |
| CN1CCCC1CCNc1ccc2c(=O)c(C(=O)NCCN3CCCC3)cn3c2c1Oc1cc2ccccc2cc1-3 (stereo not drawn) [compound 1522] | 750 nM |
| CN1CCCC1CCNC(=O)c1cn2c3c(c(NCCC4CCCN4C)ccc3c1=O)Oc1cc3ccccc3cc1-2 (stereo not drawn) [compound 1523] | 750 nM |
| CN1CCCC1CCNc1ccc2c(=O)c(C(=O)NCCCN3CCOCC3)cn3c2c1Oc1cc2ccccc2cc1-3 (stereo not drawn) [compound 1524] | 1750 nM |
| CN1CCCC1CCNc1ccc2c(=O)c(C(=O)NC3CC(C)(C)NC(C)(C)C3)cn3c2c1Oc1cc2ccccc2cc1-3 (stereo not drawn) [compound 1525] | 1750 nM |
| CN(C)CCCCNC(=O)c1cn2c3c(c(NCCC4CCCN4C)ccc3c1=O)Oc1cc3ccccc3cc1-2 (stereo not drawn) [compound 1526] | 750 nM |
| CN1CCCC1CCNc1ccc2c(=O)c(C(=O)NCCN3CCOCC3)cn3c2c1Oc1cc2ccccc2cc1-3 (stereo not drawn) [compound 1527] | 1750 nM |
| O=C(NCCN1CCCC1)c1cn2c3c(c(NCCCN4CCOCC4)ccc3c1=O)Oc1cc3ccccc3cc1-2 [compound 1528] | 1750 nM |
| CN1CCCC1CCNC(=O)c1cn2c3c(c(NCCCN4CCOCC4)ccc3c1=O)Oc1cc3ccccc3cc1-2 (stereo not drawn) [compound 1529] | 1750 nM |
| O=C(NCCCN1CCOCC1)c1cn2c3c(c(NCCCN4CCOCC4)ccc3c1=O)Oc1cc3ccccc3cc1-2 [compound 1530] | > 15000 nM |
| CC1(C)CC(NC(=O)c2cn3c4c(c(NCCCN5CCOCC5)ccc4c2=O)Oc2cc4ccccc4cc2-3)CC(C)(C)N1 [compound 1531] | > 15000 nM |
| CN(C)CCCCNC(=O)c1cn2c3c(c(NCCCN4CCOCC4)ccc3c1=O)Oc1cc3ccccc3cc1-2 [compound 1532] | > 15000 nM |
| O=C(NCCN1CCOCC1)c1cn2c3c(c(NCCCN4CCOCC4)ccc3c1=O)Oc1cc3ccccc3cc1-2 [compound 1533] | > 15000 nM |
| CC(C)(C)OC(=O)NC1CCN(c2ccc3c(=O)c(C(=O)NCCN4CCCC4)cn4c3c2Oc2cc3ccccc3cc2-4)C1 (stereo not drawn) [compound 1534] | > 15000 nM |

| Structure (SMILES) | IC50 |
| --- | --- |
| CN1CCCC1CCNC(=O)c1cn2c3c(c(N4CCC(NC(=O)OC(C)(C)C)C4)ccc3c1=O)Oc1cc3ccccc3cc1-2 (stereo not drawn) [compound 1535] | 750 nM |
| CC(C)(C)OC(=O)NC1CCN(c2ccc3c(=O)c(C(=O)NCCCN4CCOCC4)cn4c3c2Oc2cc3ccccc3cc2-4)C1 (stereo not drawn) [compound 1536] | > 15000 nM |
| CC1(C)CC(NC(=O)c2cn3c4c(c(N5CCC(NC(=O)OC(C)(C)C)C5)ccc4c2=O)Oc2cc4ccccc4cc2-3)CC(C)(C)N1 (stereo not drawn) [compound 1537] | 1750 nM |
| CN(C)CCCCNC(=O)c1cn2c3c(c(N4CCC(NC(=O)OC(C)(C)C)C4)ccc3c1=O)Oc1cc3ccccc3cc1-2 (stereo not drawn) [compound 1538] | 1000 nM |
| CN(C)CCCCNC(=O)c1cn2c3c(c(N4CCC(NC(=O)OC(C)(C)C)C4)ccc3c1=O)Oc1cc3ccccc3cc1-2 (stereo not drawn) [compound 1539] | 750 nM |
| CN(C)CCCCNc1ccc2c(=O)c(C(=O)NCCN3CCCC3)cn3c2c1Oc1cc2ccccc2cc1-3 [compound 1540] | 1000 nM |
| CN(C)CCCCNc1ccc2c(=O)c(C(=O)NCCC3CCCN3C)cn3c2c1Oc1cc2ccccc2cc1-3 (stereo not drawn) [compound 1541] | 1750 nM |
| CN(C)CCCCNc1ccc2c(=O)c(C(=O)NCCCN3CCOCC3)cn3c2c1Oc1cc2ccccc2cc1-3 [compound 1542] | > 15000 nM |
| CN(C)CCCCNc1ccc2c(=O)c(C(=O)NC3CC(C)(C)NC(C)(C)C3)cn3c2c1Oc1cc2ccccc2cc1-3 [compound 1543] | 1750 nM |
| CN(C)CCCCNC(=O)c1cn2c3c(c(NCCCCN(C)C)ccc3c1=O)Oc1cc3ccccc3cc1-2 [compound 1544] | 1750 nM |
| CN(C)CCCCNc1ccc2c(=O)c(C(=O)NCCN3CCOCC3)cn3c2c1Oc1cc2ccccc2cc1-3 [compound 1545] | 750 nM |
| O=C(NCCN1CCCC1)c1cn2c3c(c(NCCN4CCOCC4)ccc3c1=O)Oc1cc3ccccc3cc1-2 [compound 1546] | > 15000 nM |
| CN1CCCC1CCNC(=O)c1cn2c3c(c(NCCN4CCOCC4)ccc3c1=O)Oc1cc3ccccc3cc1-2 (stereo not drawn) [compound 1547] | > 15000 nM |
| O=C(NCCCN1CCOCC1)c1cn2c3c(c(NCCN4CCOCC4)ccc3c1=O)Oc1cc3ccccc3cc1-2 [compound 1548] | > 15000 nM |
| CC1(C)CC(NC(=O)c2cn3c4c(c(NCCN5CCOCC5)ccc4c2=O)Oc2cc4ccccc4cc2-3)CC(C)(C)N1 [compound 1549] | > 15000 nM |
| CN(C)CCCCNC(=O)c1cn2c3c(c(NCCN4CCOCC4)ccc3c1=O)Oc1cc3ccccc3cc1-2 [compound 1550] | > 15000 nM |
| O=C(NCCN1CCOCC1)c1cn2c3c(c(NCCN4CCOCC4)ccc3c1=O)Oc1cc3ccccc3cc1-2 [compound 1551] | > 15000 nM |
| CN1CCN(CCCNc2ccc3c(=O)c(C(=O)NCCN4CCCC4)cn4c3c2Oc2cc3ccccc3cc2-4)CC1 [compound 1552] | 750 nM |
| CN1CCN(CCCNc2ccc3c(=O)c(C(=O)NCCC4CCCN4C)cn4c3c2Oc2cc3ccccc3cc2-4)CC1 (stereo not drawn) [compound 1553] | 750 nM |
| CN1CCN(CCCNc2ccc3c(=O)c(C(=O)NCCCN4CCOCC4)cn4c3c2Oc2cc3ccccc3cc2-4)CC1 [compound 1554] | 1750 nM |
| CN(C)CCCCNC(=O)c1cn2c3c(c(NCCCN4CCN(C)CC4)ccc3c1=O)Oc1cc3ccccc3cc1-2 [compound 1555] | 750 nM |
| CN1CCN(CCCNc2ccc3c(=O)c(C(=O)NCCN4CCOCC4)cn4c3c2Oc2cc3ccccc3cc2-4)CC1 [compound 1556] | 1750 nM |
| O=C(NCCCN1CCOCC1)c1cn2c3c(c(NCCCN4CCOCC4)c(F)cc3c1=O)Oc1ccccc1-2 [compound 1560] | > 15000 nM |
| CC(C)N1CCN(c2c(F)cc3c(=O)c(C(=O)NCCCN4CCOCC4)cn4c3c2Oc2ccccc2-4)CC1 [compound 1561] | > 15000 nM |
